# From US20260234180A1, “AMINO ACID DERIVATIVE, PREPARATION METHOD THEREFOR, AND PHARMACEUTICAL COMPOSITION FOR TREATING HEPATITIS, COMPRISING SAME” (priority 2021, published 2026)
# How the values were obtained:
# Jurkat cell line = assay: Cytotoxicity, WST-1 cell viability; format: cell-based, human; details: 0.2 μM~50 μM, 24 and 48 hours
# Method: For Example 1 (LCA-Ile), Example 44 (LCA-Val), Example 2 (UDCA-Ile), and Example 3 (UDCA-Val), cytotoxicity was evaluated in the Jurkat cell line, a human T lymphocyte-derived cell line. Jurkat cell lines were seeded at a density of 5×10^4 on a 96 well plate for overnight incubation, and each compound was treated at a concentration of 0.2 μM~50 μM for 24 or 48 hours. WST-1, a reagent for measuring cell viability, was loaded at 10 μl/well, and absorbance was measured at 440 nm using a microplate reader 2 hours later. The mean value of negative control (NC) group treated with only DMSO was calculated as 1 and the cytotoxicity for the remaining experimental group was evaluated.
# HBV virus = assay: HBV infection of HepG2-NTCP cells, Southern blot analysis; format: cell-based, hepatitis B virus (HBV); details: 20 μM
# Method: Specifically, the HepG2-NTCP cell line was cultured on a 6-well plate, incubation was performed overnight, HBV inhibitors were treated at a concentration of 20 μM, and the positive control Myrcludex-B (MyrB) was treated at a concentration of 200 nM, followed by culture for 24 hours. After HBV infection into the cells to make HBV 3000 genome equivalent per ml/cell (Geq/cell), the cell culture medium was replaced (medium changing, MC) a day after the viral infection to remove the virus unattached to cell membranes. In order to measure an amount of virus that entered the cell, medium changing (MC) was performed once more 4 days after viral infection. 2 days after replacement, HBeAg ELISA analysis was performed using a supernatant, and Southern blot analysis was performed with cell pellets.
# First, the cell pellets were pipetted with 100 μl of HEPES lysis buffer (10 mM HEPES, 100 mM NaCl, 1 mM EDTA, 1% NP-40), placed on ice for 20 minutes, and then centrifuged with a centrifuge under the conditions at 4° C. and 13000 rpm. After transferring the supernatant only to the new microtube, 4.5 μl of nuclease buffer I (10 mM CaCl2), 12 mM MgCl2, DNase 10 units) was added to carry out a reaction at 37° C. for 2 hours, and 40 μl of 26% PEG solution was added, followed by a reaction on ice for 1 hour. After centrifuging with the centrifuge at 4° C. and 13000 rpm for 30 minutes, and the supernatant was removed cleanly. After releasing the pellets with 100 μl of nuclease buffer II (10 mM Tris, 8 mM CaCl2), 6 mM MgCl2), 287.5 μl of 0.5% SDS buffer (25 mM Tris, 10 mM EDTA, 0.5% SDS, 100 mM NaCl) was added, and 12.5 μl of 20 mg/ml proteinase K was added, followed by a reaction at 37° C. for 2 hours. 400 μl of phenol-chloroform-isoamyl alcohol was added, centrifugation was performed at room temperature at 13000 rpm after voltexing, the supernatant was transferred to a new tube, 40 μl of 3 M NaOAc was added, and 800 μl of 100% ethanol was added for inverting, followed by a reaction overnight at −20° C. After performing centrifugation at 4° C. and 13000 rpm for 30 minutes, 800 μl of 70% ethanol was added and mixed to the pellet obtained by removing the supernatant, centrifugation was performed at 4° C. and 13000 rpm for 10 minutes, and then the supernatant was discarded. The ethanol was dried for 5 minutes to leave only the HBV DNA pellets, and then the pellets were dissolved again in 15 μl of TE buffer (10 mM Tris, 1 mM EDTA). HBV DNA samples were loaded in 1% agarose gel, and electrophoresis was performed. It was then immersed in denature buffer (0.25 N NaOH, 1 M NaCl) for 30 minutes to denature dsDNA of HBV into ssDNA. The DNA in the gel was transferred to a Nylon membrane using a transfer buffer (0.4 M NaOH), the membrane was soaked with a 2×SSC buffer (sigma, cat #85639) for neutralization, followed by drying in air. The membrane was immersed in a church buffer (10% BSA, 0.5 M EDTA, 1 M NaPi, 20% SDS), and the radioisotopes were hybridized using a Mega prime kit (GE healthcare, RPN1607). After washing three times with washing buffer (2×SSC, 0.1% SDS), measurement was performed using radioisotope measurement equipment, and a relative replication rate (%) to the negative control group (Mock) was calculated and shown.
# [1] = target: T1, NTCP, HepG2-hNTCP-C4 cell line (Homo sapiens, UniProt Q14973); assay: Inhibition of binding of fluorescent-labeled PreS1 peptide, fluorescence imaging; details: 10 M and 50 PM; compared to the HBV-induced group solely treated with PreS1
# T1 construct: expressed in transfected cells; host or cells: HepG2-hNTCP-C4 (HepG2 cells expressing human NTCP)
# T1 sequence (Q14973 1-349): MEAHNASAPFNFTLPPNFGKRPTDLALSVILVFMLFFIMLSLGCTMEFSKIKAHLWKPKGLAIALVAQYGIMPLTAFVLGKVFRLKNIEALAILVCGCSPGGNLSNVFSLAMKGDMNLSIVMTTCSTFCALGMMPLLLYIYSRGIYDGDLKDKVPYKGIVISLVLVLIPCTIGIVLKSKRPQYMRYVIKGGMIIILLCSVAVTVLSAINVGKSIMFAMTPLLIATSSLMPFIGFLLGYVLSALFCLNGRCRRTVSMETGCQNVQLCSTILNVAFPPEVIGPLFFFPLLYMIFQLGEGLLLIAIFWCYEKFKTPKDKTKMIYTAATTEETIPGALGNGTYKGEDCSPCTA
# Method: Specifically, after placing a cover slip coated with fibronectin on a 24 well plate, a HepG2-hNTCP-C4 cell line, which is a cell line expressing NTCP, was seeded at a density of 1×10^5, followed by incubation overnight. Thereafter, 20 nM PreS1 and the compounds in Examples 1, 8, 9, and 44 were treated by diluting in culture media at 4° C. at a concentration of 50 μM, respectively. After 2 hours, the media were suctioned, followed by washing twice with 4° C. PBS, fixation with 4% paraformaldehyde for 20 minutes, and washing twice with 4° C. PBS. Thereafter, 300 nM 4′,6-diamidino-2-phenylindole (DAPI) was treated to stain the nucleus for 20 minutes, and then washing was followed once with distilled water (DW) and twice with 4° C. PBS. Subsequently, 10 μl of mounting media was loaded onto a slide glass, and a cover slip was placed thereon for observation under a fluorescence microscope.
# Green fluorescence may be observed when PreS1 binds to a cell line expressing NTCP by FITC conjugated to PreS1.
SMILES,cytotoxicity (Jurkat cell line),amount of HBeAg DNA detected compared to the negative control group (Mock) (HBV virus),binding between PreS1 and NTCP (green fluorescence imaging) [1]
"CC(C)[C@H](NC(=O)CC[C@@H](C)[C@H]1CC[C@H]2[C@@H]3CC[C@@H]4C[C@H](O)CC[C@]4(C)[C@H]3CC[C@]12C)C(=O)O [Example 44, (S)-2-((R)-4-((3R,5R,8R,9S,10S,13R,14S,17R)-3-hydroxy-10,13-dimethyl-hexadecahydro-1H-cyclopenta[a]phenanthren-17-yl)pentanamido)-3-methylbutanoic acid]",barely observed,relatively less amount,inhibited in a concentration dependent manner
"CC[C@@H](C)[C@H](NC(=O)CC[C@@H](C)[C@H]1CC[C@H]2[C@@H]3[C@@H](O)C[C@@H]4C[C@H](O)CC[C@]4(C)[C@H]3CC[C@]12C)C(=O)O [Example 2, (2S,3R)-2-((R)-4-((3R,5S,7S,8R,9S,10S,13R,14S,17R)-3,7-dihydroxy-10,13-dimethyl-hexadecahydro-1H-cyclopenta[a]phenanthren-17-yl)pentanamido)-3-methylpentanoic acid]",barely observed,relatively less amount,inhibited in a concentration dependent manner
"CC[C@@H](C)[C@H](NC(=O)CC[C@@H](C)[C@H]1CC[C@H]2[C@@H]3CC[C@@H]4C[C@H](O)CC[C@]4(C)[C@H]3C[C@H](O)[C@]12C)C(=O)O [Example 10, (2S,3R)-2-((R)-4-((3R,5R,8R,9S,10S,12S,13R,14S,17R)-3,12-dihydroxy-10,13-dimethyl-hexadecahydro-1H-cyclopenta[a]phenanthren-17-yl)pentanamido)-3-methylpentanoic acid]",–,relatively less amount,–
"CC(C)[C@H](NC(=O)CC[C@@H](C)[C@H]1CC[C@H]2[C@@H]3[C@@H](O)C[C@@H]4C[C@H](O)CC[C@]4(C)[C@H]3CC[C@]12C)C(=O)O [Example 3, (S)-2-((R)-4-((3R,5S,7S,8R,9S,10S,13R,14S,17R)-3,7-dihydroxy-10,13-dimethyl-hexadecahydro-1H-cyclopenta[a]phenanthren-17-yl)pentanamido)-3-methylbutanoic acid]",barely observed,relatively less amount,inhibited in a concentration dependent manner
"CC[C@@H](C)[C@H](NC(=O)CC[C@@H](C)[C@H]1CC[C@H]2[C@@H]3CC[C@@H]4C[C@H](O)CC[C@]4(C)[C@H]3CC[C@]12C)C(=O)O [Example 1, (2S,3R)-2-((R)-4-((3R,5R,8R,9S,10S,13R,14S,17R)-3-hydroxy-10,13-dimethyl-hexadecahydro-1H-cyclopenta[a]phenanthren-17-yl)pentanamido)-3-methylpentanoic acid]",barely observed,relatively less amount,inhibited in a concentration dependent manner
